According to PMC5218480 (PLoS ONE, 2017):

Test system: MV-4-11 cells
Test: Gene expression microarray analysis (Affymetrix PrimeView) and GSEA
Type: cell-based, human
Set-up: RFU PODN (11730768_x_at) / Fold change /veh PODN (11730768_x_at) / RFU LINC00158 (11744669_a_at) / Fold change /veh LINC00158 (11744669_a_at) / RFU DUSP10 (11751237_a_at) / Fold change /veh DUSP10 (11751237_a_at) / RFU ID3 (11757404_x_at) / Fold change /veh ID3 (11757404_x_at) / RFU PLEKHG5 (11737974_s_at) / Fold change /veh PLEKHG5 (11737974_s_at) / RFU LRRC4B (11730491_at) / Fold change /veh LRRC4B (11730491_at) / RFU GIMAP4 (11747438_a_at) / Fold change /veh GIMAP4 (11747438_a_at) / RFU KRT8 (11758183_x_at) / Fold change /veh KRT8 (11758183_x_at) / RFU CNN1 (11734310_a_at) / Fold change /veh CNN1 (11734310_a_at) / RFU VPS37D (11726825_at) / Fold change /veh VPS37D (11726825_at) / RFU C10orf10 (11716522_x_at) / Fold change /veh C10orf10 (11716522_x_at) / RFU KIR2DL2 /// KIR2DL4 /// KIR2DL5A /// KIR2DL5B /// KIR2DS1 /// KIR2DS2 /// KIR2DS3 /// KIR2DS4 /// KIR3DL3 /// KIR3DL3 /// KIR3DS1 (11738374_at) / Fold change /veh KIR2DL2 /// KIR2DL4 /// KIR2DL5A /// KIR2DL5B /// KIR2DS1 /// KIR2DS2 /// KIR2DS3 /// KIR2DS4 /// KIR3DL3 /// KIR3DL3 /// KIR3DS1 (11738374_at) / RFU C1QL1 (11718748_at) / Fold change /veh C1QL1 (11718748_at) / RFU TMPRSS4 (11747572_a_at) / Fold change /veh TMPRSS4 (11747572_a_at) / RFU HAMP (11756126_x_at) / Fold change /veh HAMP (11756126_x_at) / RFU RNFT2 (11725882_a_at) / Fold change /veh RNFT2 (11725882_a_at) / RFU NR4A2 (11747474_a_at) / Fold change /veh NR4A2 (11747474_a_at) / RFU ABCC12 (11746883_a_at) / Fold change /veh ABCC12 (11746883_a_at) / RFU TMEM136 (11760407_x_at) / Fold change /veh TMEM136 (11760407_x_at) / RFU CLDN22 /// WWC2 (11732394_at) / Fold change /veh CLDN22 /// WWC2 (11732394_at) / RFU HLA-DPB1 (11760878_x_at) / Fold change /veh HLA-DPB1 (11760878_x_at) / RFU SPINT1 (11716480_a_at) / Fold change /veh SPINT1 (11716480_a_at) / RFU GAP43 (11754022_s_at) / Fold change /veh GAP43 (11754022_s_at) / RFU A4GNT (11735810_at) / Fold change /veh A4GNT (11735810_at) / RFU PRB3 (11715151_x_at) / Fold change /veh PRB3 (11715151_x_at) / RFU TUBB4B (11761932_at) / Fold change /veh TUBB4B (11761932_at) / RFU CAPN14 (11732068_a_at) / Fold change /veh CAPN14 (11732068_a_at) / RFU TMCC2 (11721928_a_at) / Fold change /veh TMCC2 (11721928_a_at) / RFU IRGQ (11745062_a_at) / Fold change /veh IRGQ (11745062_a_at) / RFU FAM174B (11720279_a_at) / Fold change /veh FAM174B (11720279_a_at) / RFU TMPRSS4 (11748680_a_at) / Fold change /veh TMPRSS4 (11748680_a_at) / RFU FAM212B (11763350_a_at) / Fold change /veh FAM212B (11763350_a_at) / RFU PLEKHG5 (11743358_a_at) / Fold change /veh PLEKHG5 (11743358_a_at) / RFU ZSCAN30 (11745921_a_at) / Fold change /veh ZSCAN30 (11745921_a_at) / RFU CMKLR1 (11741424_a_at) / Fold change /veh CMKLR1 (11741424_a_at) / RFU LOC101060620 /// MAPK8IP1 (11723275_at) / Fold change /veh LOC101060620 /// MAPK8IP1 (11723275_at) / RFU SPTSSB (11747773_x_at) / Fold change /veh SPTSSB (11747773_x_at) / RFU PRSS12 (11739890_at) / Fold change /veh PRSS12 (11739890_at) / RFU BIN1 (11741810_x_at) / Fold change /veh BIN1 (11741810_x_at) / RFU WNT11 (11732464_a_at) / Fold change /veh WNT11 (11732464_a_at) / RFU C10orf10 (11716521_a_at) / Fold change /veh C10orf10 (11716521_a_at) / RFU C5orf56 (11738089_at) / Fold change /veh C5orf56 (11738089_at) / RFU CYB561 (11721691_x_at) / Fold change /veh CYB561 (11721691_x_at) / RFU ANKRD19P (11752326_a_at) / Fold change /veh ANKRD19P (11752326_a_at) / RFU OR2T12 /// OR2T33 /// OR2T8 (11738714_s_at) / Fold change /veh OR2T12 /// OR2T33 /// OR2T8 (11738714_s_at) / RFU VCAN (11748164_a_at) / Fold change /veh VCAN (11748164_a_at) / RFU JSRP1 (11732532_at) / Fold change /veh JSRP1 (11732532_at) / RFU KRTAP10-11 (11738290_x_at) / Fold change /veh KRTAP10-11 (11738290_x_at) / RFU MYO3A (11730013_a_at) / Fold change /veh MYO3A (11730013_a_at) / RFU EBF3 (11725865_a_at) / Fold change /veh EBF3 (11725865_a_at) / RFU CAMK2N1 (11719241_x_at) / Fold change /veh CAMK2N1 (11719241_x_at) / RFU C5orf56 (11738088_a_at) / Fold change /veh C5orf56 (11738088_a_at) / RFU OLFML3 (11715873_a_at) / Fold change /veh OLFML3 (11715873_a_at) / RFU LOC100653217 /// NTM (11731650_a_at) / Fold change /veh LOC100653217 /// NTM (11731650_a_at) / RFU MAPK11 (11762145_a_at) / Fold change /veh MAPK11 (11762145_a_at) / RFU FIZ1 (11724087_x_at) / Fold change /veh FIZ1 (11724087_x_at) / RFU OASL (11726364_x_at) / Fold change /veh OASL (11726364_x_at) / RFU SOX15 (11748057_x_at) / Fold change /veh SOX15 (11748057_x_at) / RFU CD79A (11719716_a_at) / Fold change /veh CD79A (11719716_a_at) / RFU HIST1H1D (11736915_at) / Fold change /veh HIST1H1D (11736915_at) / RFU CASKIN2 (11723855_a_at) / Fold change /veh CASKIN2 (11723855_a_at) / RFU LOC730098 (11760151_x_at) / Fold change /veh LOC730098 (11760151_x_at) / RFU OR4N2 (11742367_at) / Fold change /veh OR4N2 (11742367_at) / RFU PRRT2 (11749266_a_at) / Fold change /veh PRRT2 (11749266_a_at) / RFU SNX32 (11753110_a_at) / Fold change /veh SNX32 (11753110_a_at) / RFU CDHR5 (11726645_a_at) / Fold change /veh CDHR5 (11726645_a_at) / RFU RCAN1 (11760418_a_at) / Fold change /veh RCAN1 (11760418_a_at) / RFU FAM167A (11723789_a_at) / Fold change /veh FAM167A (11723789_a_at) / RFU FAM26E (11764081_at) / Fold change /veh FAM26E (11764081_at) / RFU ISYNA1 (11749810_s_at) / Fold change /veh ISYNA1 (11749810_s_at) / RFU ACY1 (11761880_at) / Fold change /veh ACY1 (11761880_at) / RFU 11764098_at / Fold change /veh 11764098_at / RFU SAMD14 (11745864_x_at) / Fold change /veh SAMD14 (11745864_x_at) / RFU NPB (11741838_a_at) / Fold change /veh NPB (11741838_a_at) / RFU TMPRSS6 (11731388_a_at) / Fold change /veh TMPRSS6 (11731388_a_at) / RFU KRTAP10-2 (11738614_at) / Fold change /veh KRTAP10-2 (11738614_at) / RFU ARHGAP8 /// PRR5-ARHGAP8 (11727945_x_at) / Fold change /veh ARHGAP8 /// PRR5-ARHGAP8 (11727945_x_at) / RFU KRTAP5-7 /// NADSYN1 (11734609_at) / Fold change /veh KRTAP5-7 /// NADSYN1 (11734609_at) / RFU RASL12 (11751679_a_at) / Fold change /veh RASL12 (11751679_a_at) / RFU CDKN2B (11736163_a_at) / Fold change /veh CDKN2B (11736163_a_at) / RFU PRF1 (11729649_at) / Fold change /veh PRF1 (11729649_at) / RFU, ZNF638 /// ZNF638-IT1 / Fold change vs veh, ZNF638 /// ZNF638-IT1 / RFU, PANK3 / Fold change vs veh, PANK3 / RFU, SH3YL1 / Fold change vs veh, SH3YL1 / RFU, ZEB2 / Fold change vs veh, ZEB2 / RFU, NRIP1 / Fold change vs veh, NRIP1 / RFU, PTTG1IP / Fold change vs veh, PTTG1IP / RFU, CAPN2 / Fold change vs veh, CAPN2 / RFU, MED14 / Fold change vs veh, MED14 / RFU, SNORA58 / Fold change vs veh, SNORA58 / RFU, C1orf63 / Fold change vs veh, C1orf63 / RFU, LRRFIP1 / Fold change vs veh, LRRFIP1 / RFU, NDUFAF7 / Fold change vs veh, NDUFAF7 / RFU, SLC12A2 / Fold change vs veh, SLC12A2 / RFU, IBTK / Fold change vs veh, IBTK / RFU, ESF1 / Fold change vs veh, ESF1 / Fold change vs veh, TMEM50B / RFU, TAOK1 / Fold change vs veh, TAOK1 / RFU, ACBD3 / Fold change vs veh, ACBD3 / RFU, TMA16 / Fold change vs veh, TMA16 / RFU, RWDD3 / Fold change vs veh, RWDD3 / RFU, BCAT1 / Fold change vs veh, BCAT1 / RFU, EDEM3 / Fold change vs veh, EDEM3 / RFU, TMEM33 / Fold change vs veh, TMEM33 / RFU, WDR75 / Fold change vs veh, WDR75 / RFU, AHCTF1 / Fold change vs veh, AHCTF1 / RFU, TFRC / Fold change vs veh, TFRC / RFU, ZDHHC17 / Fold change vs veh, ZDHHC17 / RFU, NOM1 / Fold change vs veh, NOM1 / RFU, ARL8B / Fold change vs veh, ARL8B / RFU, ZBTB11 / Fold change vs veh, ZBTB11 / RFU, TAMM41 / Fold change vs veh, TAMM41 / RFU, KIAA1704 /// LOC100996395 / Fold change vs veh, KIAA1704 /// LOC100996395 / RFU, ING1 / Fold change vs veh, ING1 / RFU, TRMT61B / Fold change vs veh, TRMT61B / RFU, FUBP3 / Fold change vs veh, FUBP3 / RFU, TP53 / Fold change vs veh, TP53 / RFU, TNKS2 / Fold change vs veh, TNKS2 / RFU, ZFP14 / Fold change vs veh, ZFP14 / RFU, ACTR2 / Fold change vs veh, ACTR2 / RFU, PPP3R1 / Fold change vs veh, PPP3R1 / RFU, PIK3R1 / Fold change vs veh, PIK3R1 / RFU, HNRNPA1 / Fold change vs veh, HNRNPA1 / RFU, RNF170 / Fold change vs veh, RNF170 / RFU, ZNF28 / Fold change vs veh, ZNF28 / RFU, RNGTT / Fold change vs veh, RNGTT / RFU, OGT / Fold change vs veh, OGT / RFU, BRD1 / Fold change vs veh, BRD1 / RFU, MARS / Fold change vs veh, MARS / RFU, ZNF655 / Fold change vs veh, ZNF655 / RFU, FAHD1 / Fold change vs veh, FAHD1 / RFU, BDP1 / Fold change vs veh, BDP1 / RFU, LRRCC1 / Fold change vs veh, LRRCC1 / RFU, ARID1A / Fold change vs veh, ARID1A / RFU, ZNF146 / Fold change vs veh, ZNF146 / RFU, ZNF330 / Fold change vs veh, ZNF330 / RFU, GPN3 / Fold change vs veh, GPN3 / RFU, C9orf123 / Fold change vs veh, C9orf123 / RFU, N4BP2L2 / Fold change vs veh, N4BP2L2 / RFU, ARFIP1 / Fold change vs veh, ARFIP1 / RFU, FAM179B / Fold change vs veh, FAM179B / RFU, BCL10 / Fold change vs veh, BCL10 / RFU, UHRF1BP1L / Fold change vs veh, UHRF1BP1L / RFU, BET1 / Fold change vs veh, BET1 / RFU, CNOT2 / Fold change vs veh, CNOT2 / RFU, ZNF268 / Fold change vs veh, ZNF268 / Fold change vs veh, ZNF507 / RFU, DGCR2 / Fold change vs veh, DGCR2 / RFU, WDSUB1 / Fold change vs veh, WDSUB1 / Fold change vs veh, HSP90B1 /// MIR3652 / RFU, ADSS / Fold change vs veh, ADSS / RFU, GK / Fold change vs veh, GK / RFU, ZNF148 / Fold change vs veh, ZNF148 / RFU, TAF9 / Fold change vs veh, TAF9 / RFU, SLC1A5 / Fold change vs veh, SLC1A5 / RFU, SLMO2 / Fold change vs veh, SLMO2 / RFU, ABCC4 / Fold change vs veh, ABCC4 / RFU, LOC101060439 /// RAP1B / Fold change vs veh, LOC101060439 /// RAP1B / RFU, RFX7 / Fold change vs veh, RFX7 / RFU, GTPBP10 / Fold change vs veh, GTPBP10 / RFU, CNEP1R1 / Fold change vs veh, CNEP1R1 / RFU, BIVM-ERCC5 /// ERCC5 / Fold change vs veh, BIVM-ERCC5 /// ERCC5 / RFU, ILF3 / Fold change vs veh, ILF3 / RFU 11762660_at / Fold change /veh 11762660_at / RFU VCAN (11757783_s_at) / Fold change /veh VCAN (11757783_s_at) / RFU DDX43 (11728927_at) / Fold change /veh DDX43 (11728927_at) / RFU KRT8 (11758188_x_at) / Fold change /veh KRT8 (11758188_x_at) / RFU NKD1 (11759106_at) / Fold change /veh NKD1 (11759106_at) / RFU SRD5A1 (11742802_a_at) / Fold change /veh SRD5A1 (11742802_a_at) / RFU TPSAB1 /// TPSB2 (11721975_s_at) / Fold change /veh TPSAB1 /// TPSB2 (11721975_s_at) / RFU GSTM3 (11746129_a_at) / Fold change /veh GSTM3 (11746129_a_at) / RFU IL23R (11737362_x_at) / Fold change /veh IL23R (11737362_x_at) / RFU TMEM51 (11727254_a_at) / Fold change /veh TMEM51 (11727254_a_at) / RFU PIWIL2 (11732686_x_at) / Fold change /veh PIWIL2 (11732686_x_at) / RFU ORM1 (11744905_x_at) / Fold change /veh ORM1 (11744905_x_at) / RFU CCDC152 (11743942_at) / Fold change /veh CCDC152 (11743942_at) / RFU ECM1 (11717891_a_at) / Fold change /veh ECM1 (11717891_a_at) / RFU IL23R (11748794_a_at) / Fold change /veh IL23R (11748794_a_at) / RFU TNFAIP8L3 (11732012_x_at) / Fold change /veh TNFAIP8L3 (11732012_x_at) / RFU MBOAT4 (11741988_at) / Fold change /veh MBOAT4 (11741988_at) / RFU 11764193_at / Fold change /veh 11764193_at / RFU TMEM53 (11763286_at) / Fold change /veh TMEM53 (11763286_at) / RFU MAGEB2 (11727129_at) / Fold change /veh MAGEB2 (11727129_at) / RFU TMEM200A (11744735_a_at) / Fold change /veh TMEM200A (11744735_a_at) / RFU CCDC152 (11751479_a_at) / Fold change /veh CCDC152 (11751479_a_at) / RFU FAM211A (11726209_a_at) / Fold change /veh FAM211A (11726209_a_at) / RFU RGS16 (11746705_a_at) / Fold change /veh RGS16 (11746705_a_at) / RFU VCAN (11755009_s_at) / Fold change /veh VCAN (11755009_s_at) / RFU RHOB (11743442_s_at) / Fold change /veh RHOB (11743442_s_at) / RFU RGS16 (11720943_a_at) / Fold change /veh RGS16 (11720943_a_at) / RFU RGS16 (11720944_at) / Fold change /veh RGS16 (11720944_at) / RFU, VPS4B / Fold change vs veh, VPS4B / RFU, CREB1 / Fold change vs veh, CREB1 / RFU, DNAJC13 / Fold change vs veh, DNAJC13 / RFU, GNAQ / Fold change vs veh, GNAQ / RFU, CDK5R1 / Fold change vs veh, CDK5R1 / RFU, ZRANB3 / Fold change vs veh, ZRANB3 / RFU, CUL4A / Fold change vs veh, CUL4A / RFU, CCNY / Fold change vs veh, CCNY / RFU, UFL1 / Fold change vs veh, UFL1 / RFU, COG3 / Fold change vs veh, COG3 / RFU, DIAPH2 / Fold change vs veh, DIAPH2 / RFU, SKA2 / Fold change vs veh, SKA2 / RFU, AFF3 / Fold change vs veh, AFF3 / RFU, LMF1 / Fold change vs veh, LMF1 / RFU, IPO11 / Fold change vs veh, IPO11 / RFU, DFFB / Fold change vs veh, DFFB / RFU, FOXP1 / Fold change vs veh, FOXP1 / RFU, CARD8 / Fold change vs veh, CARD8 / RFU, STRN3 / Fold change vs veh, STRN3 / RFU, ADK / Fold change vs veh, ADK / RFU, RASSF2 / Fold change vs veh, RASSF2 / RFU, WIPF1 / Fold change vs veh, WIPF1 / RFU, LARP1B / Fold change vs veh, LARP1B / RFU, RASA1 / Fold change vs veh, RASA1 / RFU, RB1 / Fold change vs veh, RB1 / RFU, PPFIA1 / Fold change vs veh, PPFIA1 / RFU, MAT2A / Fold change vs veh, MAT2A / RFU, CCT5 / Fold change vs veh, CCT5 / RFU, WDR92 / Fold change vs veh, WDR92 / RFU, CUX1 / Fold change vs veh, CUX1 / RFU, TTC7A / Fold change vs veh, TTC7A / RFU, TMEM135 / Fold change vs veh, TMEM135 / RFU, DEPTOR / Fold change vs veh, DEPTOR / RFU, CPM / Fold change vs veh, CPM / RFU, DNAJB6 / Fold change vs veh, DNAJB6 / RFU, CACNA2D3 / Fold change vs veh, CACNA2D3 / RFU, DTX4 / Fold change vs veh, DTX4 / RFU, TFCP2 / Fold change vs veh, TFCP2 / RFU, GMCL1 /// GMCL1P1 / Fold change vs veh, GMCL1 /// GMCL1P1 / RFU, AEBP2 / Fold change vs veh, AEBP2 / RFU, SNHG1 /// SNORD22 /// SNORD25 /// SNORD26 /// SNORD27 /// SNORD28 /// SNORD29 /// SNORD31 / Fold change vs veh, SNHG1 /// SNORD22 /// SNORD25 /// SNORD26 /// SNORD27 /// SNORD28 /// SNORD29 /// SNORD31 / Fold change (Aza/veh), C12orf56 (ProbeSet 11735607_a_at) / Fold change (ACY-1035/veh), C12orf56 (ProbeSet 11735607_a_at) / Fold change (Aza/veh), FGFR1OP (ProbeSet 11751329_s_at) / Fold change (ACY-1035/veh), FGFR1OP (ProbeSet 11751329_s_at) / Fold change (Aza/veh), VPS36 (ProbeSet 11739960_a_at) / Fold change (ACY-1035/veh), VPS36 (ProbeSet 11739960_a_at) / RFU SYPL1 (11715823_x_at) / Fold change /veh SYPL1 (11715823_x_at) / RFU IGFBP7 (11715501_s_at) / Fold change /veh IGFBP7 (11715501_s_at) / RFU REEP3 (11722064_at) / Fold change /veh REEP3 (11722064_at) / RFU IGLL1 (11728026_x_at) / Fold change /veh IGLL1 (11728026_x_at): dose or concentration left out as unconfirmed
Settings: MV-4-11 cells, 48 hours

Nc1ncn([C@@H]2O[C@H](CO)[C@@H](O)[C@H]2O)c(=O)n1 [azacitidine]
Fold change /veh LINC00158 (11744669_a_at): 1.04
